Source: patent publication US20250195530A1, “POLQ INHIBITORS” (ASTRAZENECA AB, priority 2022, published 2025)

test system: DLD-1 BRCA2−/− cells; assay: Homologous recombination synthetic lethal inhibition of proliferation, DLD-1 BRCA2-/- (Cell Titre Glo 3D); assay type: cell-based; conditions: Homo sapiens, DLD-1, first proliferation column (c5), taken as DLD-1 BRCA2-/-; read-out: POLQ PD Prolif Lumin (converted)
Summary of the method: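 Proliferation of HR-deficient DLD-1 BRCA2−/− versus isogenic wild-type DLD-1 was measured by ATP luminescence (CellTiter-Glo 3D). Compound exposure lasted 12 or 7 days, respectively, with a fresh dose on day 6. IC50 was the concentration halving maximal signal.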

Row | SMILES | IC50
1 | Cc1ccnc(Cn2c(-c3ccc(O[C@@H]4CCN(C(N)=O)C4)cc3Cl)nc3c(OC4(C)CC4)ncnc32)c1 [Example T344, (R)-3-(3-chloro-4-(6-(1-methylcyclopropoxy)-9-((4-methylpyridin-2-yl)methyl)-9H-purin-8-yl)phenoxy)pyrrolidine-1-carboxamide] | 2000 nM
2 | CC1(Oc2ncnc3c2nc(-c2ccc(OCCN4CCNCC4)cc2Cl)n3Cc2ccc(F)cn2)CC1 [Example T350, 8-(2-chloro-4-(2-(piperazin-1-yl)ethoxy)phenyl)-9-((5-fluoropyridin-2-yl)methyl)-6-(1-methylcyclopropoxy)-9H-purine] | 2510 nM
3 | CC1(Oc2ncnc3c2nc(-c2ccc(OCCN4CCNCC4)cc2Cl)n3Cc2ncccc2F)CC1 [Example T351, 8-(2-chloro-4-(2-(piperazin-1-yl)ethoxy)phenyl)-9-((3-fluoropyridin-2-yl)methyl)-6-(1-methylcyclopropoxy)-9H-purine] | 3160 nM
4 | Cc1ccnc(Cn2c(-c3ccc(CCC(=O)N(C)C)cc3Cl)nc3c(OC4(C)CC4)ncnc32)c1 [Example T358, 3-(3-chloro-4-(6-(1-methylcyclopropoxy)-9-((4-methylpyridin-2-yl)methyl)-9H-purin-8-yl)phenyl)-N,N-dimethylpropanamide] | 251 nM
5 | CC[C@H](CO)NC(=O)c1ccc(-c2nc3c(OC4(C)CC4)ncnc3n2Cc2cc(C)ccn2)c(Cl)c1 [Example T361, (R)-3-chloro-N-(1-hydroxybutan-2-yl)-4-(6-(1-methylcyclopropoxy)-9-((4-methylpyridin-2-yl)methyl)-9H-purin-8-yl)benzamide] | 631 nM
6 | Cc1ccnc(Cn2c(-c3ccc(C(=O)NC(C)(C)CO)cc3Cl)nc3c(OC4(C)CC4)ncnc32)c1 [Example T362, 3-chloro-N-(1-hydroxy-2-methylpropan-2-yl)-4-(6-(1-methylcyclopropoxy)-9-((4-methylpyridin-2-yl)methyl)-9H-purin-8-yl)benzamide] | 631 nM
7 | Cc1ccnc(Cn2c(-c3ccc(C(=O)N[C@H](C)CCO)cc3Cl)nc3c(OC4(C)CC4)ncnc32)c1 [Example T364, (R)-3-chloro-N-(4-hydroxybutan-2-yl)-4-(6-(1-methylcyclopropoxy)-9-((4-methylpyridin-2-yl)methyl)-9H-purin-8-yl)benzamide] | 794 nM
8 | CC[C@@H](O)CNC(=O)c1ccc(-c2nc3c(OC4(C)CC4)ncnc3n2Cc2cc(C)ccn2)c(Cl)c1 [Example T365, (R)-3-chloro-N-(2-hydroxybutyl)-4-(6-(1-methylcyclopropoxy)-9-((4-methylpyridin-2-yl)methyl)-9H-purin-8-yl)benzamide] | 794 nM
9 | Cc1ccnc(Cn2c(-c3ccc(OCC(=O)NC(C)C)cc3Cl)nc3c(OC4(C)CC4)ncnc32)c1 [Example T366, 2-(3-chloro-4-(6-(1-methylcyclopropoxy)-9-((4-methylpyridin-2-yl)methyl)-9H-purin-8-yl)phenoxy)-N-isopropylacetamide] | 200 nM
10 | CC(=O)NCCCOc1ccc(-c2nc3c(OC4(C)CC4)ncnc3n2Cc2cc(C)ccn2)c(Cl)c1 [Example T367, N-(3-(3-chloro-4-(6-(1-methylcyclopropoxy)-9-((4-methylpyridin-2-yl)methyl)-9H-purin-8-yl)phenoxy)propyl)acetamide] | 316 nM
11 | Cc1ccnc(Cn2c(-c3ccc(CCNC(=O)[C@@H](C)O)cc3Cl)nc3c(OC4(C)CC4)ncnc32)c1 [Example T368, (R)-N-(3-chloro-4-(6-(1-methylcyclopropoxy)-9-((4-methylpyridin-2-yl)methyl)-9H-purin-8-yl)phenethyl)-2-hydroxypropanamide] | 631 nM
12 | Cc1ccnc(Cn2c(-c3ccc(CC(=O)NCCCO)cc3Cl)nc3c(OC4(C)CC4)ncnc32)c1 [Example T370, 2-(3-chloro-4-(6-(1-methylcyclopropoxy)-9-((4-methylpyridin-2-yl)methyl)-9H-purin-8-yl)phenyl)-N-(3-hydroxypropyl)acetamide] | 1000 nM
13 | Cc1ccnc(Cn2c(-c3ccc(OCC(=O)NC[C@H](C)O)cc3Cl)nc3c(OC4(C)CC4)ncnc32)c1 [Example T372, (S)-2-(3-chloro-4-(6-(1-methylcyclopropoxy)-9-((4-methylpyridin-2-yl)methyl)-9H-purin-8-yl)phenoxy)-N-(2-hydroxypropyl)acetamide] | 398 nM
14 | Cc1ccnc(Cn2c(-c3ccc(OCC(=O)NCCCO)cc3Cl)nc3c(OC4(C)CC4)ncnc32)c1 [Example T373, 2-(3-chloro-4-(6-(1-methylcyclopropoxy)-9-((4-methylpyridin-2-yl)methyl)-9H-purin-8-yl)phenoxy)-N-(3-hydroxypropyl)acetamide] | 316 nM
15 | Cc1ccnc(Cn2c(-c3ccc(OCC(=O)N(C)CCO)cc3Cl)nc3c(OC4(C)CC4)ncnc32)c1 [Example T374, 2-(3-chloro-4-(6-(1-methylcyclopropoxy)-9-((4-methylpyridin-2-yl)methyl)-9H-purin-8-yl)phenoxy)-N-(2-hydroxyethyl)-N-methylacetamide] | 1260 nM
16 | Cc1ccnc(Cn2c(-c3ccc(OCCNC(=O)[C@@H](C)O)cc3Cl)nc3c(OC4(C)CC4)ncnc32)c1 [Example T375, (R)-N-(2-(3-chloro-4-(6-(1-methylcyclopropoxy)-9-((4-methylpyridin-2-yl)methyl)-9H-purin-8-yl)phenoxy)ethyl)-2-hydroxypropanamide] | 251 nM
17 | Cc1ccnc(Cn2c(-c3ccc(OCCN(C)C)cc3Cl)nc3c(OC4(C)CC4)nccc32)c1 [Example T381, 2-(3-chloro-4-(4-(1-methylcyclopropoxy)-1-((4-methylpyridin-2-yl)methyl)-1H-imidazo[4,5-c]pyridin-2-yl)phenoxy)-N,N-dimethylethan-1-amine] | 251 nM
18 | Cc1ccnc(Cn2c(-c3ccc(OCC(C)(C)CO)cc3Cl)nc3c(OC4(C)CC4)ncnc32)c1 [Example T383, 3-(3-chloro-4-(6-(1-methylcyclopropoxy)-9-((4-methylpyridin-2-yl)methyl)-9H-purin-8-yl)phenoxy)-2,2-dimethylpropan-1-ol] | 126 nM
19 | Cc1ccnc(Cn2c(-c3ccc(N4CCCNCC4)cc3Cl)nc3c(OC4(C)CC4)ncnc32)c1 [Example T384, 8-(2-chloro-4-(1,4-diazepan-1-yl)phenyl)-6-(1-methylcyclopropoxy)-9-((4-methylpyridin-2-yl)methyl)-9H-purine] | 398 nM
20 | Cc1cc(OCCCN(C)C)ccc1-c1nc2c(OC3(C)CC3)ncnc2n1Cc1cc(Cl)ccn1 [Example T387, 3-(4-(9-((4-chloropyridin-2-yl)methyl)-6-(1-methylcyclopropoxy)-9H-purin-8-yl)-3-methylphenoxy)-N,N-dimethylpropan-1-amine] | 158 nM

same assay, conditions: Homo sapiens, DLD-1, proliferation, luminescence, taken as DLD-1 BRCA2-/-; read-out: POLQ PD Prolif Lumin (converted)

Row | SMILES | IC50
21 | Cn1nc(COc2ccc(-c3nc4c(OC5(C)CC5)ncnc4n3Cc3cccc(Cl)c3)c(Cl)c2)cc1C(=O)O [Example T394, 3-((3-chloro-4-(9-(3-chlorobenzyl)-6-(1-methylcyclopropoxy)-9H-purin-8-yl)phenoxy)methyl)-1-methyl-1H-pyrazole-5-carboxylic acid] | 3160 nM
22 | Cc1ccnc(Cn2c(-c3ccc(C(=O)N4CCC[C@H]4C#N)cc3Cl)nc3c(OC4(C)CC4)ncnc32)c1 [Example T404, (S)-1-(3-chloro-4-(6-(1-methylcyclopropoxy)-9-((4-methylpyridin-2-yl)methyl)-9H-purin-8-yl)benzoyl)pyrrolidine-2-carbonitrile] | 1260 nM
23 | Cc1ccnc(Cn2c(-c3ccc(C(=O)N4CC[C@@H](C#N)C4)cc3Cl)nc3c(OC4(C)CC4)ncnc32)c1 [Example T405, (R)-1-(3-chloro-4-(6-(1-methylcyclopropoxy)-9-((4-methylpyridin-2-yl)methyl)-9H-purin-8-yl)benzoyl)pyrrolidine-3-carbonitrile] | 1260 nM
24 | Cc1ccnc(Cn2c(-c3ccc(C(=O)N4C[C@@H]5C[C@H]4CO5)cc3Cl)nc3c(OC4(C)CC4)ncnc32)c1 [Example T416, ((1S,4S)-2-oxa-5-azabicyclo[2.2.1]heptan-5-yl)(3-chloro-4-(6-(1-methylcyclopropoxy)-9-((4-methylpyridin-2-yl)methyl)-9H-purin-8-yl)phenyl)methanone] | 1580 nM
25 | Cc1ccnc(Cn2c(-c3ccc(C(=O)N4CCC[C@H](F)C4)cc3Cl)nc3c(OC4(C)CC4)ncnc32)c1 [Example T418, (S)-(3-chloro-4-(6-(1-methylcyclopropoxy)-9-((4-methylpyridin-2-yl)methyl)-9H-purin-8-yl)phenyl)(3-fluoropiperidin-1-yl)methanone] | 631 nM
26 | Cc1ccnc(Cn2c(-c3ccc(OCC(=O)N4CC[C@H](F)C4)cc3Cl)nc3c(OC4(C)CC4)ncnc32)c1 [Example T420, (S)-2-(3-chloro-4-(6-(1-methylcyclopropoxy)-9-((4-methylpyridin-2-yl)methyl)-9H-purin-8-yl)phenoxy)-1-(3-fluoropyrrolidin-1-yl)ethan-1-one] | 251 nM
27 | Cc1ccnc(Cn2c(-c3ccc(OCC(=O)NC4CC(F)C4)cc3Cl)nc3c(OC4(C)CC4)ncnc32)c1 (centres unmarked) [Example T421, 2-(3-chloro-4-(6-(1-methylcyclopropoxy)-9-((4-methylpyridin-2-yl)methyl)-9H-purin-8-yl)phenoxy)-N-(3-fluorocyclobutyl)acetamide] | 251 nM
28 | Cc1ccnc(Cn2c(-c3ccc(OCC(=O)N4C[C@@H](O)[C@H](F)C4)cc3Cl)nc3c(OC4(C)CC4)ncnc32)c1 [Example T423, 2-(3-chloro-4-(6-(1-methylcyclopropoxy)-9-((4-methylpyridin-2-yl)methyl)-9H-purin-8-yl)phenoxy)-1-((3R,4R)-3-fluoro-4-hydroxypyrrolidin-1-yl)ethan-1-one] | 1000 nM
29 | Cc1ccnc(Cn2c(-c3ccc(OC4CC5(COC5)C4)cc3Cl)nc3c(OC4(C)CC4)ncnc32)c1 [Example T426, 8-(4-((2-oxaspiro[3.3]heptan-6-yl)oxy)-2-chlorophenyl)-6-(1-methylcyclopropoxy)-9-((4-methylpyridin-2-yl)methyl)-9H-purine] | 100 nM
